80 compounds from the METLIN SMRT retention time set (Domingo-Almenara et al. 2019) can be followed below.

The nature of this data set: gradient 5% acetonitrile 3 min, to 50% in 2 min, to 85% in 15 min, held 3 min, 100 µL/min. As to conditions: column: Zorbax Extend-C18 2.1 x 50 mm; eluents: water / acetonitrile, 0.1% formic acid. The gist of the method:
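Retention times come from adduct peaks that were picked computationally and then checked by hand. The standards, pure and pooled in mixtures of ~100 molecules, were run on a Zorbax Extend-C18 column (2.1 × 50 mm, 1.8 μm) at 100 μL/min with water and acetonitrile, each with 0.1% formic acid. Detection was by quadrupole time-of-flight mass spectrometry in positive and negative ionization mode, with a dead volume of 40 μL and a dwell volume of 900 μL.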
In turn, `COCCNC(=O)c1ccc(-n2nc(C)c3c2CCCC3=O)cc1` yielded an RP-LC retention time of 633 s. The figure for `O=C(NCC1CN(c2ccc3c(c2)OCO3)C(=O)O1)c1ccccc1C(F)(F)F` (stereo not given) is 880 s; for `CCn1c(C(=O)NCCCN2CCCC(C)C2)cc2cc(S(=O)(=O)N(C)C)ccc21` (stereo not given) it is 677 s.

With `Cc1cc2c(cc1S(=O)(=O)N1CCCC1C(=O)N1CCOCC1)OC(C)C(=O)N2` (stereo not given), the RP-LC retention time was determined as 638 s.

On to `COc1ccccc1-c1nc2nccc(-c3ccc(Br)s3)n2n1`, for which the RP-LC retention time was determined as 1020 s. The same measure for `Cc1cc(C)c2[nH]c3c(c(=O)c2c1)CN(CC(=O)Nc1ccccc1)CC3`: 627 s.

Compound `CCc1ccccc1NC(=O)Cn1c(=O)n(-c2cccc(C)c2)c(=O)c2c1cc(C)n2C` gave an RP-LC retention time of 882 s. The figure for `Cn1cc(-c2ccncc2)cc1C(=O)N1CCN(c2ccc(Cl)cc2)CC1` is 682 s; for `O=C(NCc1cccs1)C1CCN(c2nc3ccc(Cl)cc3[nH]2)CC1` it is 644 s; for `CCN(CC)CCCNC(=O)C1c2ccccc2C(=O)N(C)C1c1cccs1` (stereo not given) it is 602 s. Turning to `COc1ccc(N2CCN(c3cc(SCC(=O)Nc4cccc(Cl)c4F)ncn3)CC2)cc1`, the RP-LC retention time came to 1190 s. The compound `O=C(NC1CCCC1)N1CCC(OC2CCN(Cc3ccccc3)CC2)CC1` showed an RP-LC retention time of 634 s.

The compound `Cc1ccc2c(=O)c3c([nH]c2c1C)CCN(CC(=O)Nc1ccc(F)cc1F)C3` registered an RP-LC retention time of 615 s. The same measure for `O=C(Cc1ccccc1F)NC1CCN(c2cc(-c3ccccc3)[nH]n2)C1` (stereo not given): 688 s. The figure for `Cc1[nH]c(C(=O)N2CCCC(C(=O)NCc3ccc4c(c3)OCO4)C2)c(C)c1C(=O)OC(C)C` (stereo not given) is 842 s.

Regarding `CCOc1ccc2ncc(S(=O)(=O)c3ccc(Cl)cc3)c(N3CCN(C)CC3)c2c1`, the RP-LC retention time was determined as 680 s. The same measure for `N#Cc1nnn2c1nc(N)c1c(Cl)cccc12`: 817 s; for `OC(COc1ccccc1)CN1CCN(c2ccccc2)CC1` (stereo not given): 724 s; for `Fc1ccc(OCc2nnc3sc(-c4ccc(Cl)cc4)nn23)cc1`: 1030 s.

In turn, `COC(=O)c1cn(Cc2c(F)cccc2Cl)nc1S(=O)(=O)N(C)c1ccccc1` came in with an RP-LC retention time of 718 s. The same measure for `CC(C)C(=O)Nc1ccc(-n2cnc(C(=O)NC3CCCCCC3)c2)nc1`: 806 s; for `CCOc1ccccc1NC(=O)Nc1ccc2c(c1)CCN2S(=O)(=O)c1ccc(C)cc1`: 1100 s; for `COc1ccc(N2CCN(C(=O)CC3CCN(C(=O)c4[nH]c(C)cc4C)CC3)CC2)cc1`: 739 s. The figure for `COc1ccc(-c2noc(C3CCCN3C(=O)c3cc(F)cc(F)c3)n2)cc1OC` (stereo not given) is 937 s. The same measure for `CCNc1cc(N2CCC(CCC(=O)NCC(C)C)CC2)ncn1`: 602 s. `CCc1ccc(NC(=O)C2CCN(S(=O)(=O)c3cn(C)cn3)CC2)cc1` came in with an RP-LC retention time of 734 s.

Consider `Cc1nn(C(C)C)c(C)c1-c1cc(C(=O)O)[nH]n1`, for which the RP-LC retention time was 617 s.

In the case of `CCCC(=O)N1CCCC1COc1ccc(C(=O)NC2CC2)cc1` (stereo not given), the RP-LC retention time was 717 s. The same measure for `Cc1c(Cl)cccc1NC(=O)N1CCC(OC2CCN(S(C)(=O)=O)CC2)CC1`: 743 s; for `CCc1ccc(NC(=O)Cn2c(N3CCOCC3)nc(C)cc2=O)cc1`: 711 s; for `Cn1cc(S(=O)(=O)N2CCC(C(=O)N3CCCCC3)CC2)cc1C(=O)N1CCCC1`: 688 s. The figure for `CCNc1cc(N2CCC(CCC(=O)NCc3cccc(F)c3)CC2)ncn1` is 665 s. The same measure for `CC(C)c1noc(C2Cc3ccccc3N2C(=O)Nc2ccc3c(c2)OCCO3)n1` (stereo not given): 936 s. `Cc1cccc(CNC(=O)C2CC(=O)N(c3ccc4c(c3)CCN4C(=O)C3CC3)C2)c1` (stereo not given): the RP-LC retention time is 768 s. The same measure for `Cc1nc(-c2ccc(-c3noc(COc4ccc(Cl)cc4)n3)cc2)cs1`: 1280 s; for `O=C(NCCN1CCCCCC1)C(=O)Nc1ccc2nc3n(c(=O)c2c1)CCCCC3`: 596 s. The figure for `Cc1nc(-c2ccc3c(c2)CCN3C(=O)C2COc3ccccc3O2)cs1` (stereo not given) is 1020 s; for `Cc1ccc(S(=O)(=O)Cc2ccc(-c3nc(-c4cccc(-c5ccnn5C)c4)no3)cc2)cc1` it is 1140 s. The same measure for `COC[C@@H]1CN(c2cnccn2)C[C@H]1C(=O)NCC1CC1`: 594 s; for `CCn1cc(C(=O)Nc2ccc(C)cc2Cl)c2cccnc21`: 984 s; for `CCCN(CC1CCOC1)C(=O)Nc1ccc(F)cc1` (stereo not given): 728 s. Compound `Cc1oc(C2CCN(C(=O)Cn3cnc4c3c(=O)n(C)c(=O)n4C)CC2)nc1C(=O)N1CCCC1` registered an RP-LC retention time of 619 s.

On to `CC(=O)Nc1ccc(OCC(=O)NCc2ccc(N3CCOCC3)cc2)nc1`, for which the RP-LC retention time worked out at 604 s. With `Cc1cc(-c2csc(S(=O)(=O)N3CCN(C(c4ccccc4)c4ccccc4)CC3)c2)on1`, the RP-LC retention time was 1200 s.

For the compound `CC(C)n1c(=O)sc2cc(S(=O)(=O)N3CCC(C(=O)NCCN4CCCC4)CC3)ccc21`, the RP-LC retention time was found to be 648 s.

Compound `O=C(Nc1ccc(N2CCOCC2)cc1)c1cn2c(n1)COCC2` came in with an RP-LC retention time of 600 s. The figure for `CCNC(=O)C1(CCO)CCN(c2ncccn2)C1` (stereo not given) is 539 s; for `Cn1nc2c(c1NC(=O)c1cc(C(F)(F)F)cc(C(F)(F)F)c1)CCC2` it is 927 s; for `Cc1cccc(NC(=O)C2CCN(S(=O)(=O)c3cc(C(=O)N(C)C)cs3)CC2)c1C` it is 790 s.

`COc1ccc(C(=O)NC(c2ccccc2)c2nnc(N3CCCC3)o2)cc1` (stereo not given) displayed an RP-LC retention time of 756 s. The same measure for `COc1ccc(NC(=O)c2cnc(N3CCN(C(C)C)CC3)nc2N)cc1`: 593 s; for `O=C(Nc1ccc(C(F)(F)F)cn1)c1cccc2cccnc12`: 1090 s. The same measure for `Cn1c(=O)n(CC(=O)N2CCOCC2)c(=O)c2cnc(-c3ccccc3)nc21`: 767 s; for `COc1cccc(-n2c(N3CCCC(C(=O)NCc4ccc(C)o4)C3)nc3ccsc3c2=O)c1` (stereo not given): 849 s; for `O=C(c1ccc(-c2cccs2)nc1)N1CCN(C2CCCCC2)CC1`: 711 s.

Compound `O=C(NCCN1CCCC1)C1CCN(c2nc(-c3ccc(Cl)cc3)no2)CC1` registered an RP-LC retention time of 603 s. Take `CC(C)C(=O)N1CCc2cc(C(=O)NC3CC3)ccc21`: the RP-LC retention time was 698 s.

Compound `CC(C)n1nnc2cc(C(=O)N(C)CC(=O)Nc3ccc(Cl)cc3)ccc21` gave an RP-LC retention time of 793 s. Take `CNC(=O)CC1CCOC2(CCN(C(=O)C3CC3)CC2)C1` (stereo not given): the RP-LC retention time came out at 580 s. The figure for `Cc1nn(C(C)C(=O)NCCCN(C)Cc2ccccc2)c(=O)c2nn(-c3ccccc3)c(C)c12` (stereo not given) is 678 s; for `CCC(=O)N(CCOC)CC(=O)N1CCc2sccc2C1COc1ccc(Cl)cc1` (stereo not given) it is 907 s.

As to `Cc1cccc(S(=O)(=O)Nc2cccn3ncnc23)c1`, the RP-LC retention time came out at 729 s. The figure for `O=C(Cn1c(=O)c2cccn2c2ccc(F)cc21)NCc1cccs1` is 785 s; for `COc1ccc2c(c1)C1(CCN(S(=O)(=O)c3cccc(C#N)c3)C1)C(=O)N2C` (stereo not given) it is 875 s. The same measure for `O=C(Cc1csc2nc(-c3ccccc3)cn12)Nc1ccc(Cl)cc1F`: 881 s; for `C=Cc1ccc(CN2CCCN(c3ncccc3-c3nc(CCC)no3)CC2)cc1`: 766 s.

`O=C(CN1CCN(Cc2ccc(F)cc2)C1=O)NC1CC1` had an RP-LC retention time of 649 s. The same measure for `COc1ccccc1NC(=O)C1CCN(S(=O)(=O)c2cc(-c3noc(C4CC4)n3)cs2)CC1`: 1020 s; for `COc1ccc(C(=O)Nc2nc(-c3ccc4c(c3)N(C)C(=O)C(C)O4)cs2)cc1OC` (stereo not given): 932 s. The same measure for `COc1ccc(-c2ccnc3nc(-c4ccccc4OC)nn23)cc1OC`: 804 s; for `Cc1ccc(CN2CCC(N3CC(F)(F)C[C@H]3COc3cccnc3)CC2)s1`: 587 s; for `CCc1ccccc1NC(=O)N1CC(n2cnnc2-c2ccccc2)C1`: 686 s.

As for `O=C(Nc1ccc(N2CCOCC2)cc1)C1(CCO)CCN(c2ncccn2)C1` (stereo not given), the RP-LC retention time was 549 s.

In turn, `COCC(=O)Nc1cnc(-c2cccc(Cl)c2)nc1` displayed an RP-LC retention time of 872 s. The same measure for `Cc1ccc(CNC(=O)Cc2c(C(=O)O)c(C)cn2C)o1`: 695 s. The compound `CO[C@H]1C(=O)N(C(C)C)[C@H]1C1CCN(C(=O)C2CC2)CC1` had an RP-LC retention time of 657 s. The figure for `COc1ccc(-c2c(C)noc2NC(C)=O)cc1S(=O)(=O)Nc1ccc(Cl)cc1C` is 820 s. The same measure for `CC(=O)NC(CC(C)C)C(=O)NC(Cc1ccccc1)C(=O)CCl` (stereo not given): 750 s; for `O=C(Cc1csc2nc(-c3ccccc3)cn12)N1CCN(c2ccccc2F)CC1`: 869 s. Consider `Cc1sc(NC(=O)c2ccccc2Br)nc1-c1ccc2c(c1)N(C)C(=O)CO2`, for which the RP-LC retention time came out at 960 s.
